29 compounds from PubChem BioAssay (NCI) can be followed below.

Assay in all cases: growth of human tumour cells (NCI), 48 h
Experiment [1] concerns TK-10 renal.
The test system of experiment [2] is NCI-H23 lung.
For experiment [3], the system named is OVCAR-4 ovarian.
The test system of experiment [4] is CCRF-CEM leukemia.
The subject of experiment [5] is SNB-75 CNS.
Experiment [6] has as its system SNB-19 CNS.
In experiment [7] the test system is UACC-62 melanoma.
The subject of experiment [8] is HT29 colon.
For experiment [9], the system named is 786-0 renal.
The subject of experiment [10] is MDA-MB-435.

“And” between values parts separate entries of the source, which are not always exact repeats. Equal values may be shown once.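 Method: 48-hour compound exposure of cells in 96-well plates, five concentrations, linear interpolation of endpoints. GI50 marks 50% less growth. At the TGI there is no net growth.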 Bounds are passed on as bounds.

`COc1c(O)c(C=O)c2c(O)c(-c3c(C)cc4c(C(C)C)c(OC)c(O)c(C=O)c4c3O)c(C)cc2c1C(C)C`: the TGI in [1] stood at 19.3 µM; in experiment [2], 13.2 µM; in [3] it was 14 µM; in [4], 37.6 µM; in [5], 9.38 µM; in experiment [6] it was 16.5 µM. The TGI came to 29 µM in experiment [7] and 15.3 µM in [8].
With `O=S(Nc1ccccc1)c1ccc(N2CCOCC2)cc1` (stereo not drawn), the TGI in [9], in experiment [1], in [2], in [3], in [4] and in experiment [6] was more than 100 µM throughout. For the same compound, the TGI in experiment [7] is 99.3 µM; in experiment [10], more than 100 µM; in experiment [8], more than 100 µM.
Regarding `CC1CCCC2(CC[N+](C)(CCC[N+](C)(C)C)CC2)C1` (stereo not drawn), the TGI in experiment [9], in [1], in experiment [3], in [5], in experiment [6] and in [7] was more than 100 µM in each case. Besides, the TGI in experiment [10] and in experiment [8] was more than 100 µM in each case.
As for `O=[N+]([O-])c1ccc2sc(C=Nc3cnccn3)cc2c1`, the TGI was more than 100 µM in experiment [9]; more than 100 µM in [1]; more than 100 µM in experiment [2]; 40.4 µM in experiment [4]; 63.5 µM in experiment [5]; more than 100 µM in [6]. In addition, the TGI was 53.1 µM in [7], more than 100 µM in experiment [10] and more than 100 µM in [8].
With `COP(=O)(OC)C(Cc1cn(C(C)=O)c2ccccc12)C(=O)O` (stereo not drawn), the TGI in [1], in [2], in experiment [3], in [4], in experiment [5] and in experiment [6] was more than 100 µM each time. Besides, the TGI in experiment [8] is more than 100 µM.
In the case of `C/C=C/c1cc(=O)c([C@@H]2OC(=O)c3cc(OC)cc(OC)c32)co1`, the TGI in experiment [1] is more than 100 µM; in [2], more than 100 µM; in experiment [3] it was more than 100 µM; in experiment [4], more than 100 µM; in experiment [5], 60.3 µM; in experiment [6], more than 100 µM. Besides, the TGI in experiment [7] and in [8] was more than 100 µM in each case.
In the case of `COc1cc([C@@H]2c3cc4c(cc3[C@@H](c3c(O)cc(O)c5c3O[C@H](c3ccc(O)c(O)c3)[C@@H](O)C5)[C@H]3COC(=O)[C@H]23)OCO4)cc(OC)c1OC`, the TGI was more than 100 µM in experiment [9]; 3.53 µM in [1]; more than 100 µM in [2]; 3.35 µM in [3]; more than 100 µM in experiment [4]; more than 100 µM in experiment [6]. Further, the values for the TGI in experiment [7], in experiment [10] and in [8] were 3.13 µM, 3.13 µM and 63.9 µM, respectively.
Regarding `CCNC(=S)N=Nc1c(O)[nH]c2ccc([N+](=O)[O-])cc12`, the TGI in [9] was 69 µM; in experiment [1], more than 100 µM; in [2] it was more than 100 µM; in experiment [3], more than 100 µM; in experiment [4], more than 100 µM; in [6], more than 100 µM. For the same compound, the TGI in [7], in experiment [10] and in experiment [8] was more than 100 µM in each case.
Consider `O=C1CCCCC/C1=C\c1ccc([N+](=O)[O-])cc1`, for which the TGI in experiment [9] is 54.6 µM; in experiment [1], 74.4 µM; in experiment [4] it was 70.5 µM; in experiment [5], more than 100 µM; in experiment [6] it was more than 100 µM; in experiment [7], more than 100 µM. The TGI in [10] was more than 100 µM; in [8] it was 77.7 µM.
As to `Cc1cc(S(=O)(=O)N/C(=C(\C#N)C(=O)c2ccc(Cl)cc2)[n+]2ccc(N(C)C)cc2)c([S-])cc1Cl`, the TGI in [9], in experiment [1], in experiment [3], in [4], in experiment [7] and in [10] was more than 100 µM in each case. Also, the TGI in [8] was 95.1 µM.
Regarding `NCCCN(CCCN(C(=O)Nc1ccccc1)c1ccccc1)C(=O)Nc1ccccc1`, the TGI in [9] is more than 100 µM; in experiment [1], more than 100 µM; in experiment [2] it was more than 100 µM; in experiment [4], more than 100 µM; in experiment [5], 77.6 µM; in [6] it was more than 100 µM. For the same compound, the TGI is 58 µM in experiment [7] and more than 100 µM in experiment [8].
Consider `COc1ccc(N2C(=O)CC(=O)N(C(=O)COc3ccc(OCC(=O)N4C(=O)CC(=O)N(c5ccc(OC)cc5)C4=S)cc3)C2=S)cc1`, for which the TGI in [9], in experiment [1], in [2], in [3], in [5] and in experiment [6] was more than 100 µM each time. The TGI in experiment [7], in experiment [10] and in experiment [8] was more than 100 µM each time.
In the case of `[Cl][Sn]([c]1ccccc1)([c]1ccccc1)[c]1ccccc1`, the GI50 was 0.24 µM and 0.148 µM in experiment [1]; 0.0815 µM and 0.0133 µM in [2]; 0.029 µM in experiment [4]; 0.314 µM and 0.113 µM and 0.0355 µM in experiment [6]; 0.186 µM in experiment [10]. In addition, the TGI in [1] was 0.604 µM and 0.283 µM; in experiment [2] it was 0.285 µM and 0.0456 µM; in [4] it was 0.156 µM; in [6], 1.07 µM and 0.24 µM and 0.129 µM; in experiment [10], 0.42 µM.
With `COc1ccc(C2=Nc3cc(C)c(C)cc3NC(c3ccccc3)C2)cc1` (stereo not drawn), the TGI in [9], in experiment [1], in [2], in experiment [3], in [4] and in experiment [6] was more than 100 µM throughout. Moreover, the TGI in experiment [7], in experiment [10] and in [8] was more than 100 µM in each case.
For the compound `CO/N=C1\CC(NC(=O)CNC(=O)OC(C)(C)C)c2ccsc21` (stereo not drawn), the TGI in experiment [1], in experiment [2], in experiment [3], in experiment [4], in experiment [5] and in [7] was more than 100 µM each time. Further, the TGI in [10] and in experiment [8] was more than 100 µM each time.
As for `COc1cc2ccc(=O)oc2cc1O`, the TGI in experiment [2] is more than 414 µM; in experiment [3] it was more than 172 µM; in [4] it was 328 µM; in experiment [5], 175 µM; in [6], 432 µM; in [7], 161 µM. In [8], the TGI is more than 625 µM.
In the case of `NC(=O)c1cccc([N+](=O)[O-])c1`, the TGI in experiment [9], in experiment [1], in [2], in [4], in experiment [5] and in experiment [6] was more than 100 µM throughout. Besides, the TGI in experiment [7] and in [8] was more than 100 µM in each case.
Regarding `Cc1cc(-c2nc3cc(F)ccc3s2)ccc1NC(=O)[C@@H](N)CCCCN`, the TGI in experiment [9] is 7.29 µM; in [1], 0.903 µM; in experiment [2] it was 4.93 µM; in experiment [3], 22 µM; in experiment [5] it was 4.99 µM; in [6], 28.9 µM. The TGI amounted to 23.4 µM in [7], 3.69 µM in [10] and 9.61 µM in [8].
On to `CSCCC(N)C(=O)NCCNc1ccc(NCCNC(=O)C(N)CCSC)c2c1C(=O)c1ccccc1C2=O` (stereo not drawn), for which the TGI in [9] was determined as 1.89 µM; in [1] it was 9.3 µM; in experiment [2], 2.32 µM; in experiment [3], 3.71 µM; in experiment [5], 3.65 µM; in [6], 5.81 µM. Moreover, the TGI came out at 2.51 µM in [7], 4.59 µM in [10] and 3.21 µM in experiment [8].
For `COC(=O)c1cc(=O)[nH]c(=O)[nH]1`, the TGI in [9], in experiment [1], in [2], in experiment [3], in experiment [5] and in [6] was more than 100 µM each time. Besides, the TGI in experiment [7], in experiment [10] and in experiment [8] was more than 100 µM in each case.
`CC(=O)OCC1OC(SC2=N/C(=C\c3ccc(Br)s3)C(=O)N2CN2CCOCC2)C(OC(C)=O)C(OC(C)=O)C1OC(C)=O` (stereo not drawn): the TGI in experiment [9] was 36.5 µM; in experiment [1] it was 34.8 µM; in experiment [2], 27.2 µM; in [3], more than 100 µM; in experiment [5], 68.3 µM; in [6] it was 46.7 µM. Further, the TGI was 32.1 µM in experiment [7], more than 100 µM in experiment [10] and 34.2 µM in experiment [8].
Take `O=C1C(Cl)=C(OCCCl)C(=O)c2c(O)ccc(O)c21`: the TGI in experiment [9] was determined as 17.3 µM; in [1] it was 7.76 µM; in [2], 19.8 µM; in [3], 5.46 µM; in [4], 0.381 µM; in [5], 26.3 µM. The TGI in [6] was 32.7 µM; in experiment [7] it was 14 µM; in experiment [8], 12.5 µM.
As to `C[C@H](NC(=O)C(Cc1ccccc1)(Cc1ccc(O)cn1)NC(=O)c1ccccc1)c1ccccc1` (stereo partly drawn), the TGI in experiment [9] was 31.3 µM; in [1], 94.8 µM; in [2] it was 50.5 µM; in [3], 50.4 µM; in experiment [4], more than 100 µM; in experiment [6], 39.4 µM. Besides, the TGI is 26.5 µM in [7], 37.3 µM in experiment [10] and 33.4 µM in experiment [8].
Consider `CC(C)=NN/C(=N\S(=O)(=O)c1ccc(Oc2cccc(Cl)c2C#N)cc1)Nc1ccc(Cl)cc1`, for which the TGI in experiment [9], in experiment [1], in [2], in experiment [3], in [4] and in experiment [6] was more than 100 µM in each case. Besides, the TGI in experiment [7], in [10] and in experiment [8] was more than 100 µM throughout.
As to `Nc1ccc(S(=O)(=O)c2ccc(NCN3C(=O)NC(=O)C(=O)C3=O)cc2)cc1`, the TGI in experiment [9], in experiment [1], in experiment [2], in experiment [3], in [4] and in experiment [6] was more than 100 µM throughout. The TGI in experiment [7], in experiment [10] and in experiment [8] was more than 100 µM in each case.
As to `Cc1csc(NC23CC4CC(CC(C4)C2)C3)[n+]1C(P(=O)([O-])O)P(=O)(O)O` (stereo not drawn), the TGI in experiment [9], in experiment [1], in experiment [2], in experiment [4], in experiment [5] and in [6] was more than 100 µM in each case. In addition, the TGI in experiment [7], in experiment [10] and in experiment [8] was more than 100 µM throughout.
Consider `CCOC(=O)c1nc2ccc(C(F)(F)F)cc2nc1Oc1cc(OC)c(OC)c(OC)c1`, for which the TGI is more than 100 µM in experiment [9]; more than 100 µM in [1]; 7.69 µM in [3]; 68.6 µM in [5]; more than 100 µM in [6]; more than 100 µM in [7]. In addition, the TGI in experiment [10] and in experiment [8] was more than 100 µM throughout.
Regarding `CC(C)CNc1nc2ncnc(N)c2[nH]1`, the TGI in [9], in [1], in [2], in experiment [3], in experiment [4] and in [6] was more than 100 µM each time. Moreover, the TGI in [7], in experiment [10] and in [8] was more than 100 µM each time.
As for `Cc1ccc(/C(O)=C/c2nc3ccccc3sc2=O)c(C)c1`, the TGI in [9] was more than 100 µM; in experiment [1], more than 100 µM; in experiment [2] it was more than 100 µM; in experiment [3] it was 70.8 µM; in [4], more than 100 µM; in experiment [6], more than 100 µM. Moreover, the TGI in experiment [7], in experiment [10] and in experiment [8] was more than 100 µM throughout.
